{"source": "patent US12491187B2", "about": "“Use of MCT1 inhibitors to enhance insulin sensitivity” (H. LEE MOFFIT CANCER CENTER AND RESEARCH INSTITUTE, INC., priority 2022, dated 2025)", "format_in_all_cases": "cell-based, murine", "key": {"[1]": {"system": "3T3-L1 cells", "assay": "Immunoblotting of adipogenic proteins during differentiation", "details": "differentiated in the presence of 1 μM AZD3965", "method": "(§1) Differentiation Protocol: The 3T3-L1 differentiation protocol was adapted from Green and Meuth (1974) (Zebisch, K, et al. Anal. Biochem. 2012 425:88-90; Green, H, et al. Cell 1974 3:127-133). Cells were seeded at approximately 80% confluency and allowed to reach confluency prior to induction of differentiation. 1-2 days post confluency, growth media was changed to ‘day 0’ media consisting of media supplemented with 0.5 mM 1-methyl-3-isobutyl xanthine (IBMX), 1 µM dexamethasone, and 10 μg/mL insulin. On ‘day 3’ media was changed to growth media with 10 μg/mL insulin only, and on ‘day 6’ media was replaced with normal growth media. After day 6, the complete media was refreshed every 2 days. Using Oil Red O staining, RT-qPCR and immunoblotting, it was determined that 3T3-L1 cells were fully differentiated into lipid-laden adipocytes by ‘day 8’ of the protocol, as reported by others (Petersen, C, et al. Sci. Rep. 2017 7:13101; Mangum, L H, et al. Toxicol. Lett. 2015 238:65-71). All differentiation experiments were performed on cells between passage 4 and 6 to ensure differentiation efficiency was consistent.\nImmunoblotting: For the collection of membrane bound proteins (i.e., MCT1), cells were lysed and the membrane fraction of protein was isolated as previously described (Sadler, J B A, et al. Preparation of a total membrane fraction from 3T3-L1 adipocytes (Cold Spring Harb. Protoc. 2016, 2016, pdb-prot083675). Briefly, cells were lysed with ice cold HES buffer (250 mM sucrose, 20 mM HEPES, 1 mM EDTA, pH7.4) containing a cocktail of protease and phosphatase inhibitors (Roche Diagnostic) and centrifuged for 5 min (500 g at 4° C.) to pellet out nuclei. The remaining supernatant (containing cytosolic and membrane bound proteins) was collected. […] For all samples, protein concentration of the lysates was measured using the BCA Protein Assay Kit (Pierce Biotechnologies). […] Bands were quantified using Image Studio™ (LI-COR Biosciences)."}, "[2]": {"system": "3T3-L1 cells", "assay": "Oil Red O staining of lipid during preadipocyte differentiation", "details": "differentiated in the presence of 1 μM AZD3965, vs control 3T3-L1", "method": "as §1, with “consistent. Oil Red O Staining: Cells were then fixed with 4% PFA for 10 minutes. […] 10× images of cells were taken from randomized fields of view with the Cytation 5 Cell Imaging Multi-Mode reader (BioTek Instruments). Lipid content was also quantified on the Cytation 5.” for “consistent.”"}, "[3]": {"system": "differentiated 3T3-L1 (WT) cells", "assay": "Oil Red O staining of fully differentiated adipocytes", "details": "1 μM, 24 hr, 48 hr or 72 hr", "method": "as §1, with “consistent. Oil Red O Staining: Cells were then fixed with 4% PFA for 10 minutes. […] 10× images of cells were taken from randomized fields of view with the Cytation 5 Cell Imaging Multi-Mode reader (BioTek Instruments). Lipid content was also quantified on the Cytation 5.” for “consistent.”"}, "[4]": {"system": "differentiated 3T3-L1 adipocytes", "assay": "Ki67 expression (confocal microscopy and quantification)", "details": "1 μM, 24 hr, vs untreated adipocytes", "method": "Confocal Microscopy: Cells were seeded and differentiated on 8 chamber μ-Slides (Ibidi®). Differentiated cells treated with vehicle (DMSO) or 1 μM AZD3965 for 24 hr were fixed in 4% PFA for 10 min at room temperature, permeabilized with 0.1% Triton™ X-100 in PBS and blocked with 3% BSA in PBS for an hr. Cells were subsequently incubated with Ki67 antibody (NBP2-22112, Novus Biologicals) at a 1:500 dilution in PBS 3% BSA overnight at 4° C. Cells were washed with PBS and incubated with goat anti-rabbit Alexa Fluor 647 secondary antibody (Invitrogen) at 1:2000 dilution in PBS 3% BSA for 1 hr. Lipid droplets were stained with BODIPY® (Invitrogen) for 20 min at room temperature according to the manufacturer's recommendations. Nuclei were stained for 20 min at room temperature with 4,6-diamidino-2-phenylindole (DAPI) (Sigma-Aldrich) in PBS 3% BSA, diluted at 1:5000 from a 1 mg/ml stock. Images were acquired on the Leica TCS SP8 laser scanning confocal microscope Leica Microsystems) at a magnification of 630× with 3× zoom. Ki67 Expression Quantification: Slides were prepared as outlined in ‘Confocal Microscopy’, After staining, Ki67 expression was imaged and analyzed on the Cytation 5 Cell Imaging Multi-Mode reader (BioTek Instruments) through the measure of fluorescence intensity and deep red fluorescent (Alexa647) positive pixels. […]"}}, "data": [{"smiles": "Cc1[nH]nc(C(F)(F)F)c1Cc1sc2c(c1C(=O)N1C[C@](C)(O)CO1)c(=O)n(C)c(=O)n2C(C)C", "note": "[AZD3965, 5-[[(4S)-4-hydroxy-4-methyl-2-isoxazolidinyl]carbonyl]-3-methyl-1-(1-methylethyl)-6-[[5-methyl-3-(trifluoromethyl)-1H-pyrazol-4-yl]methyl]-thieno[2,3-d]pyrimidine-2,4 (1H, 3H)-dione]", "values": [{"measurement": "FABP4 protein expression during differentiation", "setting": "[1]", "value": "significantly attenuated"}, {"measurement": "HSL protein expression during differentiation", "setting": "[1]", "value": "significantly attenuated"}, {"measurement": "PPARγ protein expression during differentiation", "setting": "[1]", "value": "significantly attenuated"}, {"measurement": "lipid content (Oil Red O staining) over the course of differentiation", "setting": "[2]", "value": "significantly less lipid"}, {"measurement": "lipid content (Oil Red O staining) of differentiated adipocytes", "setting": "[3]", "value": "progressive decrease in lipid content"}, {"measurement": "expression of Ki67", "setting": "[4]", "value": "significant increase"}]}]}
